Measurements taken from patent EP4752152A1, “STEROID COMPOUND, AND PREPARATION METHOD THEREFOR AND USE THEREOF” (Cholesgen (Shanghai) Co.Ltd., priority 2023, dated 2025).

Test system: SREBP pathway
Assay: SREBP luciferase reporter gene system (SRE-luciferase assay)
Type: cell-based, human
Settings: Huh-7/SRE-luc cells, sterol-deficient medium, 0.01-10 µM
Method in brief: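 Huh-7 cells stably carrying LDLR promoter-luciferase plus GFP were treated 16 h in sterol-deficient medium (5% lipoprotein-deficient serum, 2 µM lovastatin, 10 µM mevalonic acid) at 0.01–10 µM. Luciferase/GFP ratio measured as pathway activity; inhibition versus DMSO fitted to a four-parameter model for IC50.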

| Compound | IC50 (16 hours) | IC50 (Homo sapiens, Huh-7, 16 h) |
| --- | --- | --- |
| C[C@H](CCCC(O)c1cccc2nn[nH]c12)[C@H]1CC[C@H]2[C@H]3[C@H](CC[C@]12C)[C@@]1(C)CC[C@H](O)[C@H](O)[C@@H]1CC3(F)F (single isomer, unassigned) [Compound 295, (1R,3aS,3bS,5aR,6R,7S,9aR,9bS,11aR)-4,4-difluoro-1-[(2R,6R)-6-hydroxy-6-(3H-benzo[d][1,2,3]triazol-4-yl)hexan-2-yl]-9a,11a-dimethylhexadecahydro-1H-cyclopenta[1,2-a]phenanthrene-6,7-diol or (1R,3aS,3bS,5aR,6R,7S,9aR,9bS,11aR)-4,4-difluoro-1-[(2R,6S)-6-hydroxy-6-(3H-benzo[d][1,2,3]triazol-4-yl)hexan-2-yl]-9a,11a-dimethylhexadecahydro-1H-cyclopenta[1,2-a]phenanthrene-6,7-diol] | 0.275 µM |  |
| COc1cccc(OC)c1C(O)CCC[C@@H](C)[C@H]1CC[C@H]2[C@H]3[C@H](CC[C@]12C)[C@@]1(C)CC[C@H](O)[C@H](O)[C@@H]1CC3(F)F (stereo partly drawn) [Compound 116, (1R,3aS,3bS,5aR,6R,7S,9aR,9bS,11aR)-1-[(2R)-6-(2,6-dimethoxyphenyl)-6-hydroxyhexan-2-yl]-4,4-difluoro-9a,11a-dimethylhexadecahydro-1H-cyclopenta[1,2-a]phenanthrene-6,7-diol] |  | 0.177 µM |
| COc1ncc(F)cc1C(O)CCC[C@@H](C)[C@H]1CC[C@H]2[C@H]3[C@H](CC[C@]12C)[C@@]1(C)CC[C@H](O)[C@H](O)[C@@H]1CC3(F)F (stereo partly drawn) [Compound 151, (1R,3aS,3bS,5aR,6R,7S,9aR,9bS,11aR)-4,4-difluoro-1-[(2R)-6-(5-fluoro-2-methoxypyridin-3-yl)-6-hydroxyhexan-2-yl]-9a,11a-dimethylhexadecahydro-1H-cyclopenta[1,2-a]phenanthrene-6,7-diol] |  | 0.18 µM |
| C[C@H](CCCC(O)c1cccc(OC(F)(F)F)c1)[C@H]1CC[C@H]2C3=C(F)C[C@H]4[C@@H](O)[C@@H](O)CC[C@]4(C)[C@H]3CC[C@]12C (stereo partly drawn) [Compound 88, (1R,3aR,5aR,6R,7S,9aR,9bR,11aR)-4-fluoro-1-[(2R)-6-hydroxy-6-{3-[(trifluoromethyl)oxy]phenyl}hexan-2-yl]-9a,11a-dimethyl-2,3,3a,5,5a,6,7,8,9,9a,9b,10,11,11a-tetradecahydro-1H-cyclopenta[1,2-a]phenanthrene-6,7-diol] |  | 0.622 µM |
| C[C@H](CCC[C@H](O)c1nc2ccccc2n1C)[C@H]1CC[C@H]2[C@H]3[C@H](CC[C@]12C)[C@@]1(C)CC[C@H](O)[C@H](O)[C@@H]1CC3(F)F [Compound 306, (1R,3aS,3bS,5aR,6R,7S,9aR,9bS,11aR)-4,4-difluoro-1-[(2R,6S)-6-hydroxy-6-(1-methylbenzo[d]imidazol-2-yl)hexan-2-yl]-9a,11a-dimethylhexadecahydro-1H-cyclopenta[1,2-a]phenanthrene-6,7-diol] |  | 0.121 µM |
| C[C@H](CCCC(O)c1c(F)ccnc1F)[C@H]1CC[C@H]2[C@H]3[C@H](CC[C@]12C)[C@@]1(C)CC[C@H](O)[C@H](O)[C@@H]1CC3(F)F (stereo partly drawn) [Compound 146, (1R,3aS,3bS,5aR,6R,7S,9aR,9bS,11aR)-1-[(2R)-6-(2,4-difluoropyridin-3-yl)-6-hydroxyhexan-2-yl]-4,4-difluoro-9a,11a-dimethylhexadecahydro-1H-cyclopenta[1,2-a]phenanthrene-6,7-diol] |  | 0.16 µM |
| C[C@H](CCC[C@@H](O)c1nnnn1C)[C@H]1CC[C@H]2[C@H]3[C@H](CC[C@]12C)[C@@]1(C)CC[C@H](O)C[C@@H]1CC3(F)F (single isomer, unassigned) [Compound 381] |  | 0.285 µM |
| C[C@H](CCCC(O)c1ccc(OC(F)(F)F)cc1F)[C@H]1CC[C@H]2[C@H]3[C@H](CC[C@]12C)[C@@]1(C)CC[C@H](O)[C@H](O)[C@@H]1CC3(F)F (stereo partly drawn) [Compound 62, (1R,3aS,3bS,5aR,6R,7S,9aR,9bS,11aR)-4,4-difluoro-1-[(2R)-6-{2-fluoro-4-[(trifluoromethyl)oxy]phenyl}-6-hydroxyhexan-2-yl]-9a,11a-dimethylhexadecahydro-1H-cyclopenta[1,2-a]phenanthrene-6,7-diol] |  | 0.728 µM |
| C[C@H](CCCC(O)c1ccc(F)nc1F)[C@H]1CC[C@H]2C3=C(F)C[C@H]4[C@@H](O)[C@@H](O)CC[C@]4(C)[C@H]3CC[C@]12C (stereo partly drawn) [Compound 147, (1R,3aR,5aR,6R,7S,9aR,9bR,11aR)-1-[(2R)-6-(2,6-difluoropyridin-3-yl)-6-hydroxyhexan-2-yl]-4-fluoro-9a,11a-dimethyl-2,3,3a,5,5a,6,7,8,9,9a,9b,10,11,11a-tetradecahydro-1H-cyclopenta[1,2-a]phenanthrene-6,7-diol] |  | 0.19 µM |
| COc1ccc(F)cc1[C@H](O)CCC[C@@H](C)[C@H]1CC[C@H]2[C@H]3[C@H](CC[C@]12C)[C@@]1(C)CC[C@H](O)[C@H](O)[C@@H]1CC3(F)F [Compound 169, (1R,3aS,3bS,5aR,6R,7S,9aR,9bS,11aR)-4,4-difluoro-1-[(2R,6R)-6-(5-fluoro-2-methoxyphenyl)-6-hydroxyhexan-2-yl]-9a,11a-dimethylhexadecahydro-1H-cyclopenta[1,2-a]phenanthrene-6,7-diol] |  | 0.075 µM |
| C[C@H](CCC1CC(=NO)C1)[C@H]1CC[C@H]2[C@@H]3CC[C@H]4C[C@@H](O)CC[C@]4(C)[C@H]3CC[C@]12C (stereo partly drawn) [Compound 135, {3-[(3R)-3-[(1R,3aS,3bR,5aS,7S,9aS,9bS,11aR)-7-hydroxy-9a,11a-dimethylhexadecahydro-1H-cyclopenta[1,2-a]phenanthren-1-yl]butyl]cyclobutylidene}hydroxylamine] |  | 4.03 µM |
| COc1ccc(C(O)CCC[C@@H](C)[C@H]2CC[C@H]3[C@H]4[C@H](CC[C@]23C)[C@@]2(C)CC[C@H](O)[C@H](O)[C@@H]2CC4(F)F)c(OC)c1 (stereo partly drawn) [Compound 183, (1R,3aS,3bS,5aR,6R,7 S,9aR,9bS,11aR)-1-[(2R)-6-(2,4-Dimethoxyphenyl)-6-hydroxyhexan-2-yl]-4,4-difluoro-9a,11a-dimethylhexadecahydro-1H-cyclopenta[1,2-a]phenanthrene-6,7-diol] |  | 0.141 µM |
| COc1cc(C(O)CCC[C@@H](C)[C@H]2CC[C@H]3[C@H]4[C@H](CC[C@]23C)[C@@]2(C)CC[C@H](O)[C@H](O)[C@@H]2CC4(F)F)cc(F)n1 (single isomer, unassigned) [Compound 248, (1R,3aS,3bS,5aR,6R,7S,9aR,9bS,11aR)-4,4-difluoro-1-[(2R,6R)-6-(6-fluoro-2-methoxypyridin-4-yl)-6-hydroxyhexan-2-yl]-9a,11a-dimethylhexadecahydro-1H-cyclopenta[1,2-a]phenanthrene-6,7-diol or (1R,3aS,3bS,5aR,6R,7S,9aR,9bS,11aR)-4,4-difluoro-1-[(2R,6S)-6-(6-fluoro-2-methoxypyridin-4-yl)-6-hydroxyhexan-2-yl]-9a,11a-dimethylhexadecahydro-1H-cyclopenta[1,2-a]phenanthrene-6,7-diol] | 0.035 µM |  |
| C[C@H](CCC[C@H](O)c1nnnn1C)[C@H]1CC[C@H]2[C@H]3[C@H](CC[C@]12C)[C@@]1(C)CC[C@H](O)C[C@@H]1CC3(F)F (single isomer, unassigned) [Compound 380] |  | 0.152 µM |
| C[C@H](CCC[C@H](O)c1n[nH]c2ccccc12)[C@H]1CC[C@H]2[C@H]3[C@H](CC[C@]12C)[C@@]1(C)CC[C@H](O)[C@H](O)[C@@H]1CC3(F)F [Compound 319, (1R,3aS,3bS,5aR,6R,7S,9aR,9bS,11aR)-4,4-difluoro-1-[(2R,6S)-6-hydroxy-6-(1H-indazol-3-yl)hexan-2-yl]-9a,11a-dimethylhexadecahydro-1H-cyclopenta[1,2-a]phenanthrene-6,7-diol] |  | 0.104 µM |
| C[C@H](CCCC(O)c1cnc2c(c1)OC(F)(F)O2)[C@H]1CC[C@H]2[C@H]3[C@H](CC[C@]12C)[C@@]1(C)CC[C@H](O)[C@H](O)[C@@H]1CC3(F)F (single isomer, unassigned) [Compound 285] |  | 0.253 µM |
| COc1ccccc1C(CCC[C@@H](C)[C@H]1CC[C@H]2[C@@H]3CC[C@H]4[C@@H](O)[C@@H](O)CC[C@]4(C)[C@H]3CC[C@]12C)OC (stereo partly drawn) [Compound 22, 24-[methoxy(2-methoxyphenyl)methyl]-5α-cholane-3β,4β-diol] |  | 2.01 µM |
| COc1cc(F)cc(OC)c1C(O)CCC[C@@H](C)[C@H]1CC[C@H]2[C@H]3[C@H](CC[C@]12C)[C@@]1(C)CC[C@H](O)[C@H](O)[C@@H]1CC3(F)F (single isomer, unassigned) [Compound 225, (1R,3aS,3bS,5aR,6R,7S,9aR,9bS,11aR)-4,4-difluoro-1-[(2R,6R)-6-(4-fluoro-2,6-dimethoxyphenyl)-6-hydroxyhexan-2-yl]-9a,11a-dimethylhexadecahydro-1H-cyclopenta[1,2-a]phenanthrene-6,7-diol or (1R,3aS,3bS,5aR,6R,7S,9aR,9bS,11aR)-4,4-difluoro-1-[(2R,6S)-6-(4-fluoro-2,6-dimethoxyphenyl)-6-hydroxyhexan-2-yl]-9a,11a-dimethylhexadecahydro-1H-cyclopenta[1,2-a]phenanthrene-6,7-diol] | 0.175 µM |  |
| C[C@H](CCC[C@@H](O)c1ncc(F)cc1F)[C@H]1CC[C@H]2[C@H]3[C@H](CC[C@]12C)[C@@]1(C)CC[C@H](O)[C@H](O)[C@@H]1CC3(F)F (single isomer, unassigned) [Compound 280] |  | 0.238 µM |
| C[C@H](CCCC(O)c1nnnn1C)[C@H]1CC[C@H]2[C@H]3[C@H](CC[C@]12C)[C@@]1(C)CC[C@H](O)[C@H](O)[C@@H]1CC3(F)F (stereo partly drawn) [Compound 384, (1R,3aS,3bS,5aR,6R,7 S,9aR,9bS,11aR)-4,4-Difluoro-1-[(2R)-6-hydroxy-6-(1-methyl-1,2,3,4-tetrazol-5-yl)hexan-2-yl]-9a,11a-dimethylhexadecahydro-1H-cyclopenta[1,2-a]phenanthrene-6,7-diol] |  | 0.185 µM |
